Measurements reported in PubChem BioAssay (NCI).
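Assay format: 96-well plates, 48-hour exposure. GI50 is the concentration that inhibits growth by half. TGI marks complete inhibition of growth.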

Assays:
Test in all cases: NCI anticancer screen, dose series, 48 h
MDA-MB-435 = system: MDA-MB-435
KM12 colon = system: KM12 colon
EKVX NSCLC = system: EKVX NSCLC
CAKI-1 renal = system: CAKI-1 renal
DU-145 prostate = system: DU-145 prostate
HL-60(TB) leukemia = system: HL-60(TB) leukemia
SF-295 CNS = system: SF-295 CNS
SK-OV-3 ovarian = system: SK-OV-3 ovarian
SN12C renal = system: SN12C renal
NCI/ADR-RES ovarian = system: NCI/ADR-RES ovarian
HS 578T breast = system: HS 578T breast
OVCAR-8 ovarian = system: OVCAR-8 ovarian
SK-MEL-5 melanoma = system: SK-MEL-5 melanoma
COLO 205 colon = system: COLO 205 colon
UACC-257 melanoma = system: UACC-257 melanoma
K-562 leukemia = system: K-562 leukemia
HT29 colon = system: HT29 colon
HOP-62 NSCLC = system: HOP-62 NSCLC
UO-31 renal = system: UO-31 renal
RPMI-8226 leukemia = system: RPMI-8226 leukemia
TK-10 renal = system: TK-10 renal
HOP-92 NSCLC = system: HOP-92 NSCLC
OVCAR-4 ovarian = system: OVCAR-4 ovarian
HCT-116 colon = system: HCT-116 colon
OVCAR-5 ovarian = system: OVCAR-5 ovarian
IGROV1 ovarian = system: IGROV1 ovarian
HCC-2998 colon = system: HCC-2998 colon
SW-620 colon = system: SW-620 colon
SNB-75 CNS = system: SNB-75 CNS
CCRF-CEM leukemia = system: CCRF-CEM leukemia
MOLT-4 leukemia = system: MOLT-4 leukemia
PC-3 prostate = system: PC-3 prostate
BT-549 breast = system: BT-549 breast
U251 CNS = system: U251 CNS
NCI-H522 lung = system: NCI-H522 lung
SR leukemia = system: SR leukemia
NCI-H460 lung = system: NCI-H460 lung
ACHN renal = system: ACHN renal
HCT-15 colon = system: HCT-15 colon
A549 NSCLC = system: A549 NSCLC
A498 renal = system: A498 renal
M14 melanoma = system: M14 melanoma
SF-539 CNS = system: SF-539 CNS
MALME-3M melanoma = system: MALME-3M melanoma
UACC-62 melanoma = system: UACC-62 melanoma
RXF 393 renal = system: RXF 393 renal
SK-MEL-2 melanoma = system: SK-MEL-2 melanoma
SK-MEL-28 melanoma = system: SK-MEL-28 melanoma
786-0 renal = system: 786-0 renal
OVCAR-3 ovarian = system: OVCAR-3 ovarian

CNC(=O)c1cc(Oc2ccc3nc(NC(=O)c4ccc(CN5CCCN(C)CC5)c(C(F)(F)F)c4)sc3c2)ccn1
GI50 (MDA-MB-435): 1.48 µM | TGI (MDA-MB-435): 2.88 µM | GI50 (KM12 colon): 1.68 µM | TGI (KM12 colon): 3.21 µM | GI50 (EKVX NSCLC): 1.7 µM | TGI (EKVX NSCLC): 3.14 µM | GI50 (CAKI-1 renal): 1.52 µM | TGI (CAKI-1 renal): 2.9 µM | GI50 (DU-145 prostate): 1.7 µM | TGI (DU-145 prostate): 3.28 µM | GI50 (HL-60(TB) leukemia): 1.35 µM | TGI (HL-60(TB) leukemia): 2.94 µM | GI50 (SF-295 CNS): 1.76 µM | TGI (SF-295 CNS): 3.22 µM | GI50 (SK-OV-3 ovarian): 1.76 µM | TGI (SK-OV-3 ovarian): 3.27 µM | GI50 (SN12C renal): 1.73 µM | TGI (SN12C renal): 3.3 µM | GI50 (NCI/ADR-RES ovarian): 1.68 µM | TGI (NCI/ADR-RES ovarian): 3.53 µM | GI50 (HS 578T breast): 1.48 µM | TGI (HS 578T breast): 3.8 µM | GI50 (OVCAR-8 ovarian): 1.67 µM | TGI (OVCAR-8 ovarian): 3.18 µM | GI50 (SK-MEL-5 melanoma): 1.59 µM | TGI (SK-MEL-5 melanoma): 2.98 µM | GI50 (COLO 205 colon): 1.39 µM | TGI (COLO 205 colon): 2.78 µM | GI50 (UACC-257 melanoma): 1.57 µM | TGI (UACC-257 melanoma): 2.95 µM | GI50 (K-562 leukemia): 0.331 µM | TGI (K-562 leukemia): 1.46 µM | GI50 (HT29 colon): 0.387 µM | TGI (HT29 colon): 1.48 µM | GI50 (HOP-62 NSCLC): 1.61 µM | TGI (HOP-62 NSCLC): 3.08 µM | GI50 (UO-31 renal): 1.35 µM | TGI (UO-31 renal): 2.71 µM | GI50 (RPMI-8226 leukemia): 0.694 µM | TGI (RPMI-8226 leukemia): 2.6 µM | GI50 (TK-10 renal): 2.4 µM | TGI (TK-10 renal): 4.03 µM | GI50 (HOP-92 NSCLC): 1.36 µM | TGI (HOP-92 NSCLC): 3 µM | GI50 (OVCAR-4 ovarian): 1.6 µM | TGI (OVCAR-4 ovarian): 3.11 µM | GI50 (HCT-116 colon): 1.16 µM | TGI (HCT-116 colon): 2.4 µM | GI50 (OVCAR-5 ovarian): 1.64 µM | TGI (OVCAR-5 ovarian): 3.07 µM | GI50 (IGROV1 ovarian): 1.74 µM | TGI (IGROV1 ovarian): 3.4 µM | GI50 (HCC-2998 colon): 1.88 µM | TGI (HCC-2998 colon): 3.36 µM | GI50 (SW-620 colon): 1.7 µM | TGI (SW-620 colon): 3.19 µM | GI50 (SNB-75 CNS): 1.22 µM | TGI (SNB-75 CNS): 2.48 µM | GI50 (CCRF-CEM leukemia): 1.8 µM | TGI (CCRF-CEM leukemia): 4.06 µM | GI50 (MOLT-4 leukemia): 1.46 µM | TGI (MOLT-4 leukemia): 3.1 µM | GI50 (PC-3 prostate): 1.48 µM | TGI (PC-3 prostate): 3.24 µM | GI50 (BT-549 breast): 1.68 µM | TGI (BT-549 breast): 3.14 µM | GI50 (U251 CNS): 1.44 µM | TGI (U251 CNS): 2.8 µM | GI50 (NCI-H522 lung): 1.74 µM | TGI (NCI-H522 lung): 3.31 µM | GI50 (SR leukemia): 0.502 µM | TGI (SR leukemia): 2.15 µM | GI50 (NCI-H460 lung): 1.65 µM | TGI (NCI-H460 lung): 3.14 µM | GI50 (ACHN renal): 1.72 µM | TGI (ACHN renal): 3.09 µM | GI50 (HCT-15 colon): 0.959 µM | TGI (HCT-15 colon): 2.24 µM | GI50 (A549 NSCLC): 1.64 µM | TGI (A549 NSCLC): 3.08 µM | GI50 (A498 renal): 1.96 µM | TGI (A498 renal): 3.38 µM | GI50 (M14 melanoma): 1.22 µM | TGI (M14 melanoma): 2.65 µM | GI50 (SF-539 CNS): 1.1 µM | TGI (SF-539 CNS): 2.32 µM | GI50 (MALME-3M melanoma): 1.4 µM | TGI (MALME-3M melanoma): 2.84 µM | GI50 (UACC-62 melanoma): 1.69 µM | TGI (UACC-62 melanoma): 3.32 µM | GI50 (RXF 393 renal): 1.07 µM | TGI (RXF 393 renal): 2.27 µM | GI50 (SK-MEL-2 melanoma): 1.78 µM | TGI (SK-MEL-2 melanoma): 3.38 µM | GI50 (SK-MEL-28 melanoma): 1.3 µM | TGI (SK-MEL-28 melanoma): 2.64 µM | GI50 (786-0 renal): 1.25 µM | TGI (786-0 renal): 2.55 µM | GI50 (OVCAR-3 ovarian): 1.85 µM | TGI (OVCAR-3 ovarian): 3.41 µM
